Experimental data from patent US20180000744A1, “NANOENCAPSULATED COMPOSITIONS” (Georgia Southern Research and Service Foundation, Inc., priority 2016, published 2018).

Tested on: Human prostatic cancer cell PC3
Test: In vitro cytotoxicity / biocompatibility test, MTS assay
Format: cell-based
Conditions: 5 μM initial drug concentration in the media, 48 hours
Description: Human prostatic cancer cell PC3 were used to test the biocompatibility and cytotoxicity of FU loaded PCL nanofibers. Human prostatic cancer cell derived from metastatic site (bone) was purchased from ATCC, USA. 57 ml of fetal bovine serum (USA origin purchased from Sigma Aldrich), 7 ml of Penicillin-Streptomycin (Life Technologies) and 6 ml of HEPES (Life Technologies) was added to 500 ml RPMI-1640 medium (Fisher Scientific). This media is called R+ media. 96 well plate were used to grow PC3 cells (sterile and flat bottom type purchased from fisher scientific). 100 μL of PC3 cells at 8×10^4 cells/ml were added on each wells of 96 well plate for all tests. PC3 cells were incubated at 37° C. in a humidified 5% CO2 atmosphere for 24 hours before performing any test. […]
The cytotoxicity of NFs set A and D was assessed. […]
96 well plates were incubated at 37° C. in a humidified, 5% CO2 atmosphere for 48 hours to give sufficient time for the fluorouracil to inhibit essential biosynthetic process of the PC3 cells and thus cause cell death. […] Well plates were kept again in CO2 incubator for 3 hours and then their absorbance were measured at 490 nm using UV-Vis spectrometer. Absorbance of cells with different concentration of drug was compared with the absorbance of PC3 cells with no drug to determine the cell viability. […]

## O=c1[nH]cc(F)c(=O)[nH]1 [pristine FU, 5-Fluorouracil]
  alive cells: 43%
